In patent US10633351B2, “Halogenated compound and axially chiral isomer thereof” (MEDSHINE DISCOVERY INC., priority 2016, dated 2020):
Read-outs that look alike come from different tables or passages of the source.

Legend:
[1] = biological target: T1, URAT-1 (Homo sapiens, UniProt Q96S37); assay: Inhibition of 14C-labelled uric acid transport in MDCK cell line stably transfected with the URAT-1 gene; type: cell-based; conditions: for IC50: MDCK cells stably transfected with URAT-1, 14C uric acid 50 uM, read-out: IC50 against URAT-1
T1 construct: expressed in transfected cells; host or cells: MDCK
T1 sequence (Q96S37 1-553): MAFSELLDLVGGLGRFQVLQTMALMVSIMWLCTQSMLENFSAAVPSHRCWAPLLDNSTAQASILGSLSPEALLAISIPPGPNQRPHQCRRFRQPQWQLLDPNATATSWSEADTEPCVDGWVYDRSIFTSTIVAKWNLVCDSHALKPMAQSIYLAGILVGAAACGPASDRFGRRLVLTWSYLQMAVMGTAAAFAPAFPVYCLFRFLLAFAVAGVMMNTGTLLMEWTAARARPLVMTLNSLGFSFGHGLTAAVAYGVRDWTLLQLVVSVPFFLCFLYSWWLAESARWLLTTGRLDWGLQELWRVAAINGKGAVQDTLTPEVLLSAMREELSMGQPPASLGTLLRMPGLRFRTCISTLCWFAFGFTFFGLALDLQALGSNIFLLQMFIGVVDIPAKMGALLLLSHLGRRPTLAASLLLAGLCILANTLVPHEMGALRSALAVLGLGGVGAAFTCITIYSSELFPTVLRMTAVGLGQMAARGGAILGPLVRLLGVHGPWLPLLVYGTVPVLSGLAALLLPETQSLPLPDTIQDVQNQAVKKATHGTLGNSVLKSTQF
Source text: The inventors examined the ability of these compounds to inhibit the transport of labeled uric acid by MDCK cell lines stably transfected with the human URAT1 gene.
Determination of the IC50 value of the inhibitory activity of the compound against uric acid reabsorption by the MDCK cell line stably transfected with the URAT-1 (uric acid transporter) gene.
URAT-1 (MDCK) cell line: the MDCK cell line stably transfected with the URAT-1 gene
Cell culture medium: MEM culture medium added 10% fetal bovine serum (FBS), 1% sodium pyruvate and 250 ug/ml G418.
4) cells were diluted to 2.5×10^5/mL with the culture medium, and the diluted cells were added into a rat tail collagen-coated 24-well plate (800 uL/well, 2×10^5 cells/well). The plate was incubated overnight at 37° C. in a 5% CO2 incubator.
1) cells were seeded into 24-well plate, and supernatant was discarded after 16-18 h. The cells were washed twice using 600 ul HBSS buffer.
2) HBSS buffer was removed and 180 ul of HBSS buffer was added into each well again.
1) powder of compounds was dissolved into 100% DMSO, and diluted into 6 concentration points by 3-fold dilution, or into 2 concentration points by 10-fold dilution, and the highest starting concentration was 50 mM.
2) 5 ul DMSO solution in step 1) was transferred into 120 ul of HBSS buffer to make a 25-fold dilution.
3) 10 ul diluted solution in step 2) was added into 24-well plate, and the plate was incubated for 15 min at 37° C. in a 5% CO2 incubator. The final concentration of DMSO was 0.2%. The control well contained 0.2% DMSO without compound.
^14C-labelled uric acid was diluted and added into plate, and the final concentration was 50 uM. The plate was incubated for 10 min at 37° C. in a 5% CO2 incubator. After supernatant was discarded, cells were washed with HBSS buffer twice. Cells was lysed with 0.1M NaOH. And then cell lysis solution was collected into liquid scintillation tube and added with liquid scintillation solution. The signal was read by liquid scintillation counter Tri-Carb.
URAT-1 inhibition by the treatment of the compounds was analyzed by calculating the percentage of inhibition according to […] data. Non-linear curve fitting analysis on the percent inhibition (inh %) data using GraphPad Prism software generate the IC50 value.

[2] = hepatocyte, rat; cited from earlier work
[3] = liver microsome, monkey; cited from earlier work
[4] = hepatocyte, dog; cited from earlier work
[5] = human, 0-144 h, after Lesinurad, cited from earlier work
[6] = Pharmacokinetics in SD rats after IV and PO administration; type: in vivo; conditions: rat; for MRT inf: read-out: Detention time MRT0-inf; for half-life: read-out: Half-life T1/2 (converted); for C0: read-out: Starting concentration C0; for bioavailability: read-out: Bioavailability F; for Cmax: read-out: Peak concentration Cmax
Experimental: Drug concentrations in plasma of (−)-WX001 and (+)-WX002 were measured by LC/MS/MS method at different times after SD rats as tested animals were administered (−)-WX001 and (+)-WX002 by IV (intravenous injection) and PO (gavage), and the pharmacokinetic behavior of the compound in the present invention in rats was investigated, and its pharmacokinetic characteristics were evaluated.
12 healthy adult male SD rats were divided into 4 groups (each compound contained IV and PO group), 3 rats per group. SD rats were purchased from Shanghai Slac Laboratory Animal CO.LTD, whose animal production license number was SCXK (Shanghai) 2012-0002.
The appropriate amount of the sample was weighed, added a certain amount of DMSO and ultrasonic dissolved, and then was added 20% hydroxypropyl-β-cyclodextrin solution to give tested compound which was 1 mg/mL 5% DMSO/95% 20% HPCD clear solution used for IV and PO administration.
12 SD rats were divided into 4 groups and there were 3 male rats in each group, and administrated by IV, PO, respectively after fasting overnight. The dose of IV was 2 mg/kg and administration volume was 2 mL/kg; the dose of PO was 10 mg/kg and administration volume was 10 mL/kg.
In group of IV, about 200 μL of blood was collected at 0.083, 0.25, 0.5, 1, 2, 4, 6, 8, 24 hour after administration, placed in an anticoagulant tube of K2-EDTA, centrifuged at 3000 rpm for 15 minutes, and then plasma was separated and stored at −80° C. In group of PO, blood was collected at 0.25, 0.5, 1, 2, 4, 6, 8, 24 hour after administration, and the other operations were the same as the group of IV. The plasma samples were pretreated through precipitated protein and the plasma concentration was determined by LC/MS/MS method. A linear range of the analytical method was 4.00-6000 nM.

[7] = Metabolite identification after 120 min incubation in human hepatocytes (LC-UV-MSn); type: in vitro ADME; conditions: for metabolites detected: human hepatocyte metabolism, same condition as (±)-Lesinurad; for Percentage of ultraviolet area: human hepatocytes, 10 μM, 120 min
Experimental: The purpose of this experiment was to confirm the metabolites of a series of compounds after incubation for 120 minutes in human hepatocytes using LC-UV-MS^n (n=1-2) detection. MS and MS^2 data were analyzed using MetaboLynx™ software after data collection.
Alter incubating the sample for 2 h, the protein was precipitated by using acetonitrile containing 01.% formic acid, centrifuged, and the supernatant was taken out and dried an under nitrogen, and dissolved and then injected for analysis.

[8] = liver microsome, human; cited from earlier work
[9] = liver microsome, rat; cited from earlier work
[10] = hepatocyte, human; cited from earlier work
[11] = hepatocyte, monkey; cited from earlier work
[12] = liver microsome, dog; cited from earlier work
[13] = male, SD, plasma, iv, 2 mg/kg, IV 2 mpk
[14] = male, SD, plasma, po, 10 mg/kg, PO 10 mpk

In the case of `CC(C)(Sc1nnc(Br)n1-c1c(Cl)cc(C2CC2)c2ccccc12)C(=O)O` (single isomer, unassigned) [(+)-WX005], the IC50 [1] is reported as 1.4 µM and the “inhibitory activity against URAT-1 compared with reference (±)-Lesinurad” value ([1]; URAT1 MDCK cells) is reported as “significantly improved inhibitory activity”.
In the case of `O=C(O)CSc1nnc(Br)n1-c1ccc(C2(O)CC2)c2ccccc12` [Compound M3], the “amount of metabolite / parent found (Total 100)” value [2] is listed as “not detected”, the “amount of metabolite / parent found (Total 100)” value [3] is listed as 7.9 and the “amount of metabolite / parent found (Total 100)” value [4] is listed as “not detected”. For the same molecule, the “Percentage of administered dose” value ([5]; Feces) was 0.3% and the “Percentage of administered dose” value ([5]; Urine) was 12.0%.
`O=C(O)CSc1nnc(Br)n1-c1c(Cl)cc(C2CC2)c2ccccc12` (racemic) [(±)-WX003] showed an IC50 [1] of 10.4 µM.
With `O=C(O)CSc1nnc(Br)n1-c1c(Cl)cc(C2CC2)c2ccccc12` (single isomer, unassigned) [(−)-WX001] the IC50 [1] was 8 µM, the “fold inhibitory activity in vitro compared to the other isomer (+)-WX002” value ([1]; URAT1 MDCK cells) was “more than 3 fold” and the “inhibitory activity against URAT-1 compared with reference (±)-Lesinurad” value ([1]; URAT1 MDCK cells) was “significantly improved inhibitory activity”. The Tmax ([6]; male, SD, plasma, 10 mg/kg, PO 10 mpk, read-out: Peak time Tmax) was 1.67 h, the AUC(0-inf) ([6]; male, SD, plasma, iv, 2 mg/kg, IV 2 mpk, read-out: Area under curve AUC0-inf) was 33 µM·h and the clearance ([6]; male, SD, plasma, iv, 2 mg/kg, IV 2 mpk, read-out: Clearance rate Cl) was 0.139 L/h/kg. It also gave an MRT inf [6, 13] of 4.4 h, a half-life [6, 13] of 2.86 h and a C0 [6, 13] of 11.7 µM. The Vd ([6]; male, SD, plasma, iv, 2 mg/kg, IV 2 mpk, read-out: apparent volume of distribution Vdss) was 0.61 L/kg, the bioavailability [6, 14] was 94% and the MRT inf [6, 14] was 7.18 h. The half-life [6, 14] was 4.86 h, the Cmax [6, 14] was 20.6 µM and the “Area under curve AUC0-inf” value ([6]; PO 10 mpk, 10 mg/kg) was 154.895 µM·h. The metabolites detected [7] was “no metabolites were detected” and the “Percentage of ultraviolet area” value [7] was 100%.
In the case of `CC(C)(Sc1nnc(Br)n1-c1c(Cl)cc(C2CC2)c2ccccc12)C(=O)O` (single isomer, unassigned) [(−)-WX004], the IC50 [1] is reported as 1.1 µM and the “inhibitory activity against URAT-1 compared with reference (±)-Lesinurad” value ([1]; URAT1 MDCK cells) is reported as “significantly improved inhibitory activity”.
In the case of `O=C(O)CSc1nncn1-c1ccc(C2(O)CC2)c2ccccc12` [Compound M5], the “Percentage of administered dose” value ([5]; Feces) is listed as 3.6%.
For `O=C(O)CSc1nnc(Br)n1-c1ccc(C2CC2)c2ccccc12` (racemic) [(±)-Lesinurad, Lesinurad, reference compound], the “amount of metabolite / parent found (Total 100)” value [2] is given as 100, the bioavailability [6, 14] is given as 84% and the “Area under curve AUC0-inf” value ([6]; IV 2 mpk) is given as 14.823 µM·h. The C0 ([6]; IV 2 mpk) was 11.6 µM, the “Area under curve AUC0-inf” value ([6]; PO 10 mpk) was 62.491 µM·h and the Cmax ([6]; PO 10 mpk) was 14.5 µM. For the same molecule, the “amount of metabolite / parent found (Total 100)” value [3] was 92.1, the “amount of metabolite / parent found (Total 100)” value [8] was 100 and the “amount of metabolite / parent found (Total 100)” value [4] was 100. For the same molecule, the “amount of metabolite / parent found (Total 100)” value [9] was 100, the “amount of metabolite / parent found (Total 100)” value [10] was 92.1 and the “Percentage of ultraviolet area” value [7] was 95.60%. For the same molecule, the “Percentage of administered dose” value ([5]; Feces) was 1.5%, the “Percentage of administered dose” value ([5]; Urine) was 31.3% and the “amount of metabolite / parent found (Total 100)” value [11] was 98.1. For the same molecule, the “amount of metabolite / parent found (Total 100)” value [12] was 100.
With `O=C(O)CSc1nnc(Br)n1-c1c(Cl)cc(C2CC2)c2ccccc12` (single isomer, unassigned) [(+)-WX002] the IC50 [1] was greater than 20 µM, the “inhibitory activity against URAT-1 compared with reference (±)-Lesinurad” value ([1]; URAT1 MDCK cells) was “significantly improved inhibitory activity” and the “Area under curve AUC0-inf” value ([6]; IV 2 mpk, 2 mg/kg) was 16.775 µM·h. The “Clearance rate Cl” value ([6]; IV 2 mpk, 2 mg/kg) was 0.274 L/h/kg, the “Detention time MRT0-inf” value ([6]; IV 2 mpk, 2 mg/kg) was 3.58 h and the “Half-life T1/2” value ([6]; IV 2 mpk, 2 mg/kg) was 3.51 h. The “apparent volume of distribution Vdss” value ([6]; IV 2 mpk, 2 mg/kg) was 0.97 L/kg, the C0 ([6]; IV 2 mpk, 2 mg/kg) was 12.9 µM and the “Peak time Tmax” value ([6]; PO 10 mpk) was 1.67 h. For the same molecule, the “Area under curve AUC0-inf” value ([6]; PO 10 mpk, 10 mg/kg) was 77.436 µM·h, the “Bioavailability F” value ([6]; PO 10 mpk, 10 mg/kg) was 76% and the “Detention time MRT0-inf” value ([6]; PO 10 mpk, 10 mg/kg) was 4.82 h. The “Half-life T1/2” value ([6]; PO 10 mpk, 10 mg/kg) was 2.68 h, the Cmax ([6]; PO 10 mpk, 10 mg/kg) was 12 µM and the metabolites detected [7] was “no metabolites were detected”. The “Percentage of ultraviolet area” value [7] was 100%.
In the case of `O=C(O)CSc1nncn1-c1ccc(C2CC2)c2ccccc12` [Compound M2], the “Percentage of administered dose” value ([5]; Feces) is listed as 4.8% and the “Percentage of administered dose” value ([5]; Urine) is listed as 0.3%.
For `O=C(O)CSc1nnc(Br)n1-c1ccc(C2CC2)c2c1C=CC(O)C2O` (stereo not drawn) [Compound M4], the “amount of metabolite / parent found (Total 100)” value [2] is listed as “not detected”, the “amount of metabolite / parent found (Total 100)” value [4] is listed as “not detected” and the “Percentage of administered dose” value ([5]; Feces) is listed as 5.0%. The “Percentage of administered dose” value ([5]; Urine) was 15.7%.
